{
  "source": "patent US8211035B2",
  "about": "“System and method for monitoring health using exhaled breath” (University of Florida Research Foundation, Inc., priority 2002, dated 2012)",
  "origin": "cited, not measured here",
  "data": [
    {"smiles": "CC(C)c1cccc(C(C)C)c1O", "note": "[propofol, 2,6-diisopropylphenol]", "values": [
      {"measurement": "dose recovered in urine as hydroxylated and conjugated metabolites", "result": 88, "unit": "%"}
    ]}
  ]
}
